According to ChEMBL document CHEMBL1201862, “PubChem BioAssay data set” (2004):
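Grown in 96-well plates, cells were treated for 48 hours with each compound at five concentrations. Insufficient inhibition: endpoint recorded as highest concentration tested. GI50 is the concentration that inhibits growth by half.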 Active and inactive are the calls of the source. Rule as the data show it: active = GI50 up to about 1.1 µM and inactive = higher.

Key:
Assay in all cases: inhibition of tumour cell growth, NCI panel, 48 h
[1] = tested on: KM-20L2
[2] = tested on: SNB-78
[3] = tested on: XF498
[4] = tested on: DMS-273
[5] = tested on: HOP-18
[6] = tested on: LXFL 529
[7] = tested on: RXF 631
[8] = tested on: Hs-578T
[9] = tested on: BT-549

Measured: GI50

CCN1CCC(O)(c2ccc(C)cc2)C(C(=O)c2ccc(C)cc2)C1 (stereo not drawn)
inactive: [1] 13 µM | [2] > 51.8 µM | [3] 18 µM | [4] 19.8 µM | [5] 22.1 µM | [6] 17.4 µM

O=C(O/N=C1/CCC/C1=C\c1ccccc1)c1ccc(Cl)c(Cl)c1
inactive: [1] > 100 µM | [2] > 100 µM | [7] > 100 µM | [4] > 100 µM | [5] > 100 µM | [6] > 100 µM

COc1cc(C2c3cc4c(cc3[C@H](OCCN(C)C)[C@@H]3COC(=O)C23)OCO4)cc(OC)c1O (stereo partly drawn)
inactive: [2] 3.83 µM | [8] 1.52 µM | [6] 2.02 µM
active: [1] 0.364 µM | [3] 0.115 µM | [9] 0.499 µM | [7] 0.0724 µM | [4] 0.0385 µM | [5] 0.27 µM

CC1(CO)OC(n2cc(C(=O)NC(=O)OCc3ccccc3)c(=O)[nH]c2=O)CC1O (stereo not drawn)
inactive: [1] > 100 µM | [3] > 100 µM | [7] > 100 µM | [4] > 100 µM | [5] > 100 µM | [6] > 100 µM

COc1ccc(/C=C/C(=O)c2sc(-n3nc(-c4ccccc4)cc3-c3ccccc3)nc2C)cc1
inactive: [1] 77.4 µM | [2] > 10 µM | [3] 33.7 µM | [7] > 10 µM | [4] > 10 µM | [5] > 10 µM | [6] > 10 µM

CC(C)(C)C1CC[C@H]2c3c([nH]c4ccccc34)[C@H]3C(=O)N(c4ccc(F)cc4)C(=O)[C@H]3[C@H]2C1 (stereo partly drawn)
inactive: [1] 17.5 µM | [2] 18.4 µM | [3] 14.2 µM | [4] 17.8 µM | [5] 17.1 µM | [6] 16 µM

O=c1cc(-c2ccccc2)oc2ccc(Cl)cc12 [6-CHLOROFLAVONE]
inactive: [1] > 100 µM | [2] 48.2 µM | [8] > 44.8 µM | [3] 37.2 µM | [9] > 100 µM | [4] 72.9 µM | [5] > 100 µM | [6] > 100 µM

C/C(CCn1[nH]c(=O)ccc1=O)=N\N=C(N)N
inactive: [1] > 100 µM | [2] > 100 µM | [3] > 100 µM | [4] > 100 µM | [5] > 100 µM | [6] > 100 µM

CN(C)c1ccc2c(c1)C(=O)N(OS(=O)(=O)c1ccc([N+](=O)[O-])cc1)C2=O
inactive: [2] 26.7 µM | [3] 16.7 µM | [7] 22.3 µM | [4] 19.9 µM | [5] > 100 µM | [6] 17.9 µM

CCc1ccc(NC(=O)NC(=O)c2ccccc2[N+](=O)[O-])cc1Oc1ncc(Cl)cn1
active: [1] 0.0148 µM | [2] 0.0279 µM | [8] < 0.01 µM | [3] < 0.01 µM | [9] 0.0815 µM | [4] < 0.0149 µM | [6] < 0.0185 µM
inactive: [5] > 100 µM

CN/C=C(/c1ccc(OC)cc1)C(O)c1ccc(OC)c(OC)c1 (stereo not drawn)
inactive: [1] > 100 µM | [3] > 100 µM | [7] > 100 µM | [4] > 100 µM | [5] > 100 µM

O=C(NCc1cccnc1)C1COc2cc(-c3cc(=O)c4ccccc4o3)ccc2O1 (stereo not drawn)
inactive: [1] > 100 µM | [2] > 82.8 µM | [3] 24.6 µM | [7] > 56.1 µM | [5] > 79.4 µM | [6] 4.95 µM

O=[N+]([O-])c1ccccc1C1SCc2nc3ccccc3n21 (stereo not drawn)
inactive: [3] 13.7 µM | [7] 93.1 µM | [4] > 100 µM | [5] > 100 µM | [6] 92.9 µM

NC1=C(C(=O)O)C(=O)C(Nc2c(O)cccc2C(=O)O)=CC1=O
inactive: [1] > 100 µM | [2] > 100 µM | [3] > 100 µM | [7] > 100 µM | [4] > 100 µM | [5] > 100 µM | [6] > 100 µM

CC1=C(C(=O)Nc2ccccc2C)C(c2ccc(N(C)C)cc2)C(C(=O)Nc2ccccc2C)=C(C)N1
inactive: [1] > 100 µM | [3] 22.6 µM | [7] 56.4 µM | [4] 64.9 µM

COc1ccccc1NC(=O)C1=C(C)NC(C)=C(C(=O)Nc2ccccc2OC)C1c1ccccc1[N+](=O)[O-]
inactive: [2] 34.2 µM | [3] 22.2 µM | [7] 19.6 µM | [4] 17.9 µM | [5] 29.7 µM | [6] 11.7 µM

O=C(O/N=C1/CCCC/C1=C\c1ccccc1)c1ccc(Cl)c(Cl)c1
inactive: [1] 65.3 µM | [2] 19.1 µM | [3] 48.8 µM | [7] 16.8 µM | [4] 23.9 µM | [5] > 100 µM | [6] 14.6 µM

CCOC(=O)C(/N=N\c1ccc(S(N)(=O)=O)cc1)C(C)=O (stereo not drawn)
inactive: [1] > 100 µM | [2] > 100 µM | [3] > 100 µM | [7] > 100 µM | [4] > 100 µM | [5] > 100 µM | [6] > 100 µM

COc1cc(C=O)c(-c2c(C=O)ccc3c2OCO3)c(OC)c1OC
inactive: [1] > 100 µM | [2] > 100 µM | [7] > 100 µM | [4] 72.6 µM | [5] > 100 µM | [6] > 100 µM

OCC(O)CNc1ccnc2cc(Cl)ccc12 (stereo not drawn)
inactive: [1] > 100 µM | [2] > 100 µM | [3] > 100 µM | [5] > 100 µM | [6] > 100 µM

O=C(c1ccccc1)C(C(=O)c1ccccc1)C1(O)C(=O)c2ccccc2C1=O
inactive: [1] 34.9 µM | [2] 62.2 µM | [3] 84.1 µM | [4] 20.6 µM | [5] 68.4 µM | [6] 28.6 µM

O=S(=O)(SCCCCSS(=O)(=O)c1ccc(Cl)cc1)c1ccc(Cl)cc1
inactive: [1] 18 µM | [2] 18.6 µM | [7] 8.2 µM | [4] 10.3 µM | [5] 13.6 µM | [6] 12.2 µM
